Source: patent EP2687509A2, “Dicarboxyimides derivatives for use in the treatment of cancer” (Warszawski Uniwersytet Medyczny, priority 2012, dated 2014)
Where two headings read alike, the source gives them in different places.

Tests used:
HeLa cells = assay: MTT cytotoxicity assay, HeLa cells; assay type: cell-based; conditions: Homo sapiens, 48 h incubation, * = compound precipitated at 1 mM from cell cultures
Description: (§1) A series of dicarboximides derivatives (table 1) was tested for cytotoxic properties against four cell lines. The tests were conducted by means of MTT assay where yellow tetrazole salt was processed by the dehydrogenases in mitochondria of live cells into violet formazan. The following cell lines were used:
- HeLa cells (uterine cervix cancer)
(§2) 1. HeLa, K562, HL60, HUVEC cells in an amount of 7 thousand cells / well (in 200 µL medium) were seeded in 96-well plates. Cells were incubated overnight in an incubator (37°C, 5% CO2)
(§3) 2. Test compounds were dissolved in DMSO and added in an amount of 2µL to the surface of the cells to give the following final concentrations in the cell culture (1 mM, 10 µm, 100 nM, 1 nM). As a control, cells exposed to 1% DMSO were used.
(§4) 3. Cytotoxicity of the test compounds was evaluated by MTT test. After 48-hour incubation of HeLa, K562, HL60 or HUVEC cells with the test compounds, MTT (5mg/mL) was added in an amount of 25µL/well. MTT, a yellow tetrazolium salt was reduced to purple formazan by mitochondrial dehydrogenases of living cells. The amount of formazan could be determined spectrophotometrically and was proportional to the number of live cells. Cells were incubated with MTT for 2 hours in an incubator (37°C, 5% CO2). Next, lysis buffer containing SDS and DMF was added (95µL/well) to each well and incubated overnight at 37°C, 5% CO2.
(§5) 4. The plates were analyzed by reading the absorbance at a wavelength of 570 nm and 650 nm using the plate-reader Fluostar Omega. The measured absorbance at 570 nm is proportional to the number of living cells. IC50 values (concentration of compound causing 50% cell mortality) were read from the charts by interpolation to 50% cell survival.

K562 cells [1] = assay: MTT cytotoxicity assay, K562 cells; assay type: cell-based, human; conditions: 48 h incubation, * = compound precipitated at 1 mM from cell cultures
Description: as §1
- K562 cells (human chronic myelogenous leukaemia) and
as §2, §3, §4, §5

HUVEC cells = assay: MTT cytotoxicity assay, HUVEC cells; assay type: cell-based; conditions: Homo sapiens, 48 h incubation, * = compound precipitated at 1 mM from cell cultures
Description: as §1
- HUVEC cells (normal human endothelial cells).
as §2, §3, §4, §5

HL60 cells = assay: MTT cytotoxicity assay, HL60 cells; assay type: cell-based; conditions: Homo sapiens, HL-60, 48 h, 48 h incubation
Description: as §1
- HL60 cells (human acute myelogenous leukaemia)
as §2, §3, §4, §5

caspase 3 and 7 = assay: Apo-ONE Homogeneous Caspase-3/7 Assay in K562 cells; assay type: cell-based, human; conditions: for activity of caspase 3 and 7: 5 x IC50 (a5: 10 µM), 18 hours, compared with K562 and K562+DMSO, Fig. 1
Description: The observed cytotoxicity of compounds a3-7 was tested for its origin, i.e. induction of necrosis or apoptosis in the K562 cells of chronic myelogenous leukaemia.
K562 cells in RPMI 1640 medium containing 10% fetal calf serum and antibiotics were seeded on 96-well plate in an amount of 20x10^3 cells / well. Cells were cultured for 24 hours in an incubator (5% CO2, 37°C).
Compounds a3-a7 were dissolved in DMSO and added to the cell medium; final concentration in the cell culture was 5 x IC50. Cells cultured in the presence of 1% DMSO served as a negative control. Cells grown in the presence of 1 µM staurosporin (a strong inducer of apoptosis) served as a positive control. […]
The activity of caspase 3 and 7 was determined by means of Apo-ONE® Homogeneous Caspase-3/7 Assay (Promega, Madison, WI, USA), in compliance with manufacturer's guidelines. Cells were lysed and incubated with a profluorescent substrate for caspases for 1.5 hours at room temperature. Due to proteolytic activity of caspases, the profluorescent substrate was converted into a fluorescent product the amount of which could be determined by measurement of fluorescence intensity.
The fluorescence intensity in each well was measured using a plate reader Fluostar Omega (BMG-Labtech, Germany) at an excitation wavelength of 485 nm and emission 520 nm. The intensity of fluorescence is proportional to the activity of caspase 3 and 7 in the sample.

K562 cells [2] = conditions: against K562 cells; for comparison; cited from earlier work
[3] = tested on: peripheral blood lymphocytes; conditions: normal cells (peripheral blood lymphocytes); cited from earlier work
[4] = tested on: tumor cell lines (leukemia, breast cancer, neuroblastoma, colorectal cancer, liver, prostate, lung); conditions: 13 tested tumor cell lines; cited from earlier work
caspase-3 = conditions: MOLT-4 cells; 5µM; after 12 hours of incubation; cited from earlier work
caspase-6 = conditions: MOLT-4 cells; 5µM; after 24 hours of incubation; cited from earlier work
[5] = * = compound precipitated at 1 mM from cell cultures

Compound	IC50 (HeLa cells)	IC50 (K562 cells [1]; Homo sapiens, K562, 48 h)	IC50 (HUVEC cells)	further results
CN(C)CCCN1C(=O)C2C(C1=O)C1(c3ccccc3)CC2(c2ccccc2)C(c2ccccc2)=C1c1ccccc1 (stereo not drawn) [a2]	1 µM	1 µM	4 µM	
CC1=CC2(C)CC(C)(C)C1C1C(=O)N(CCN3CCCCC3)C(=O)C12 (stereo not drawn) [b14]	100 µM	100 µM		
CC(C)COC12CCC(C(=O)C1)C1C(=O)N(CCN(C)C)C(=O)C12 (stereo not drawn) [c1]	> 1000 µM	> 1000 µM		
CC(C)COC12CCC(C(=O)C1)C1C(=O)N(CCCN(C)C)C(=O)C12 (stereo not drawn) [c5]	> 1000 µM	> 1000 µM		
CC(C)COC12CCC(C(=O)C1)C1C(=O)N(CCN3CCOCC3)C(=O)C12 (stereo not drawn) [c3]	> 1000 µM	> 1000 µM		
CC1=CC2(C)CC(C)(C)C1C1C(=O)N(CCN(C)C)C(=O)C12 (stereo not drawn) [b11]	90 µM	100 µM	300 µM	
CC(C)NCC(O)CN1C(=O)C2C(C1=O)C1(C)C(=O)C2(C)C(c2ccccc2)=C1c1ccccc1 (stereo not drawn) [a11]	90 µM	90 µM	70 µM	
COC12C=CC(CC1)C1C(=O)N(CCN(C)C)C(=O)C12 (stereo not drawn) [b1]	> 1000 µM	> 1000 µM		
CCC12C(=O)C(CC)(C(c3ccccc3)=C1c1ccccc1)C1C(=O)N(CCN(C)C)C(=O)C12 (stereo not drawn) [a3]	> 1000 µM		> 1000 µM	IC50 (K562 cells [1]): 10 µM; IC50 (HL60 cells): 1 to 10 µM; IC50 (HL60 cells; [5]): > 1000 µM; activity of caspase 3 and 7 (caspase 3 and 7): do not increase
CC(C)COC12CCC(C(=O)C1)C1C(=O)N(CCN3CCCCC3)C(=O)C12 (stereo not drawn) [c4]	> 1000 µM	> 1000 µM		
CCOC(=O)C1CC2C(=O)CC1(C)C1C(=O)N(CCN3CCCCC3)C(=O)C21 (stereo not drawn) [c9]	> 1000 µM	> 1000 µM		
CCOC(=O)C1CC2C(=O)CC1(C)C1C(=O)N(CCN(CC)CC)C(=O)C21 (stereo not drawn) [c7]	> 1000 µM	> 1000 µM		
CN(C)CC(O)CN1C(=O)C2C(C1=O)C1(c3ccccc3)C(=O)C2(c2ccccc2)C(c2ccccc2)=C1c1ccccc1 (stereo not drawn) [a14]	1 µM	0.9 µM	2 µM	
CCOC(=O)C1CC2C(=O)CC1(C)C1C(=O)N(CCN3CCOCC3)C(=O)C21 (stereo not drawn) [c8]	> 1000 µM	> 1000 µM		
CCOC(=O)C1CC2C(=O)CC1(C)C1C(=O)N(CCN(C)C)C(=O)C21 (stereo not drawn) [c6]	100 µM	> 1000 µM	> 1000 µM	
CCN(CC)CCN1C(=O)C2C(C1=O)C1(CC)C(=O)C2(CC)C(c2ccccc2)=C1c1ccccc1 (stereo not drawn) [a4]	> 1000 µM		> 1000 µM	IC50 (K562 cells [1]): 4.5 µM; IC50 (HL60 cells): 1 to 10 µM; IC50 (HL60 cells; [5]): > 1000 µM; activity of caspase 3 and 7 (caspase 3 and 7): do not increase
CC(C)NCC(O)CN1C(=O)C2C(C1=O)C1(c3ccccc3)C(=O)C2(c2ccccc2)C(c2ccccc2)=C1c1ccccc1 (stereo not drawn) [a13]	1 µM	0.9 µM	2 µM	
CC(=O)OC12C=CC(OC(C)=O)(CC1)C1C(=O)N(CCN3CCOCC3)C(=O)C12 (stereo not drawn) [b8]	> 1000 µM	> 1000 µM		
CN(C)CCN1C(=O)C2C(C1=O)C1(c3ccccc3)CC2(c2ccccc2)C(c2ccccc2)=C1c1ccccc1 (stereo not drawn) [a1]	1 µM	1 µM	> 1000 µM	
CCC12C(=O)C(CC)(C(c3ccccc3)=C1c1ccccc1)C1C(=O)N(CCCN(C)C)C(=O)C12 (stereo not drawn) [a6]	> 1000 µM		> 1000 µM	IC50 (K562 cells [1]): 8 µM; IC50 (HL60 cells): 1 to 10 µM; IC50 (HL60 cells; [5]): > 1000 µM; activity of caspase 3 and 7 (caspase 3 and 7): do not increase

Compound	IC50 (HeLa cells)	IC50 (K562 cells [1]; Homo sapiens, K562, 48 h)	IC50 (HUVEC cells)	further results
CCN(CC)CCN1C(=O)C2C3C=CC(OC)(CC3)C2C1=O (stereo not drawn) [b2]	> 1000 µM	> 1000 µM		
CCC12C(=O)C(CC)(C(c3ccccc3)=C1c1ccccc1)C1C(=O)N(CCN3CCCCC3)C(=O)C12 (stereo not drawn) [a5]	> 1000 µM	1 to 10 µM	> 1000 µM	IC50 (K562 cells [1]): 2 µM; IC50 (HL60 cells): 1 to 10 µM; IC50 (HL60 cells; [5]): > 1000 µM; activity of caspase 3 and 7 (caspase 3 and 7): increased; activity of caspases 3 and 7 (caspase 3 and 7; a5 concentration = 10 µM, incubation time = 24h): increased
CC1=CC2(C)CC(C)(C)C1C1C(=O)N(CCN3CCOCC3)C(=O)C12 (stereo not drawn) [b13]	90 µM	90 µM	100 µM	
CN(C)CC(O)CN1C(=O)C2C(C1=O)C1(c3ccccc3)CC2(c2ccccc2)C(c2ccccc2)=C1c1ccccc1 (stereo not drawn) [a10]	1 µM	1 µM	1 µM	
COC12C=CC(CC1)C1C(=O)N(CCN3CCOCC3)C(=O)C12 (stereo not drawn) [b3]	> 1000 µM	> 1000 µM		
CCC12C(=O)C(CC)(C(c3ccccc3)=C1c1ccccc1)C1C(=O)N(CC(O)CN(C)C)C(=O)C12 (stereo not drawn) [a8]	> 1000 µM	> 1000 µM		
CC(C)NCC(O)CN1C(=O)C2C(C1=O)C1(c3ccccc3)CC2(c2ccccc2)C(c2ccccc2)=C1c1ccccc1 (stereo not drawn) [a9]	1 µM	1 µM	1 µM	
CC(=O)OC12C=CC(OC(C)=O)(CC1)C1C(=O)N(CCN3CCCCC3)C(=O)C12 (stereo not drawn) [b9]	> 1000 µM	> 1000 µM		
CC(=O)OC12C=CC(OC(C)=O)(CC1)C1C(=O)N(CCN(C)C)C(=O)C12 (stereo not drawn) [b6]	> 1000 µM	> 1000 µM		
CCN(CC)CCN1C(=O)C2C3C(C)=CC(C)(CC3(C)C)C2C1=O (stereo not drawn) [b12]	1000 µM	> 1000 µM		
CN(C)CC(O)CN1C(=O)C2C(C1=O)C1(C)C(=O)C2(C)C(c2ccccc2)=C1c1ccccc1 (stereo not drawn) [a12]	100 µM	90 µM	100 µM	
CCN(CC)CCN1C(=O)C2C(C1=O)C1(OC(C)=O)C=CC2(OC(C)=O)CC1 (stereo not drawn) [b7]	> 1000 µM	> 1000 µM		
COC12C=CC(CC1)C1C(=O)N(CCN3CCCCC3)C(=O)C12 (stereo not drawn) [b4]	> 1000 µM	> 1000 µM		
CCOC(=O)C1CC2C(=O)CC1(C)C1C(=O)N(CCCN(C)C)C(=O)C21 (stereo not drawn) [c10]	> 1000 µM	> 1000 µM		
N.N.[Cl][Pt][Cl] [cis-platinum]				IC50 (K562 cells [2]): several to several dozens
CC(=O)OC12C=CC(OC(C)=O)(CC1)C1C(=O)N(CCCN(C)C)C(=O)C12 (stereo not drawn) [b10]	> 1000 µM	> 1000 µM		
COC12C=CC(CC1)C1C(=O)N(CCCN(C)C)C(=O)C12 (stereo not drawn) [b5]	> 1000 µM	> 1000 µM		
CC1=CC2(C)CC(C)(C)C1C1C(=O)N(CCCN(C)C)C(=O)C12 (stereo not drawn) [b15]	100 µM	90 µM	700 µM	
O=C1c2cccc3c([N+](=O)[O-])ccc(c23)C(=O)N1CCCO [6-nitro-2-(3-hydroxypropyl)-1H-benz[de]izoquinolino-1,3-dione]				IC50 [3]: 273 µM; tested tumor cell lines to which the compound was toxic [4]: 8 of 13; caspase-3 activity (caspase-3): significant increase; caspase-6 activity (caspase-6): significant increase
CCN(CC)CCN1C(=O)C2C3CCC(OCC(C)C)(CC3=O)C2C1=O (stereo not drawn) [c2]	> 1000 µM	> 1000 µM		
